Test results from PubChem BioAssay (NCI).
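Compound exposure: 48 hours, 5 concentrations, 96-well plates. Abbreviation: GI50, concentration required for 50% inhibition of growth. TGI marks complete inhibition of growth.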

Columns and labels:
Assay in all cases: NCI anticancer screen, dose series, 48 h
ACHN renal = tested on: ACHN renal
BT-549 breast = tested on: BT-549 breast
COLO 205 colon = tested on: COLO 205 colon
LOX IMVI melanoma = tested on: LOX IMVI melanoma
NCI-H226 lung = tested on: NCI-H226 lung
OVCAR-4 ovarian = tested on: OVCAR-4 ovarian
SF-295 CNS = tested on: SF-295 CNS
SK-MEL-5 melanoma = tested on: SK-MEL-5 melanoma
SR leukemia = tested on: SR leukemia
T-47D breast = tested on: T-47D breast
UACC-62 melanoma = tested on: UACC-62 melanoma
UO-31 renal = tested on: UO-31 renal
A498 renal = tested on: A498 renal
MDA-N = tested on: MDA-N

Compound | TGI (ACHN renal) | TGI (BT-549 breast) | TGI (COLO 205 colon) | TGI (LOX IMVI melanoma) | TGI (NCI-H226 lung) | TGI (OVCAR-4 ovarian) | TGI (SF-295 CNS) | TGI (SK-MEL-5 melanoma) | TGI (SR leukemia) | TGI (T-47D breast) | TGI (UACC-62 melanoma) | TGI (UO-31 renal) | TGI (A498 renal) | TGI (MDA-N) | GI50 (BT-549 breast)
CC1=C[P+](c2ccccc2)(c2ccccc2)c2ccccc2O1 | > 100 µM | > 100 µM | 2.89 µM | 17.2 µM | 46.2 µM | > 100 µM | 38.9 µM | 13.5 µM | 8.28 µM | 7.79 µM | 41.1 µM | > 100 µM |  |  | 
CC(C)(C)OC(=O)NC(CSCc1ccc(C(=O)c2ccccc2)cc1)C(=O)N1CCN(CCCCN2c3ccccc3Sc3cc(N=[N+]=[N-])ccc32)CC1 (stereo not drawn) | > 100 µM | > 100 µM | > 100 µM | > 100 µM | > 100 µM | > 100 µM | > 100 µM | > 100 µM |  | > 100 µM | > 100 µM | > 100 µM | > 100 µM | > 100 µM | 
CS(=O)(=O)OCCN(CCOS(C)(=O)=O)c1ccc(C=Nc2ccc(-c3csc(Cc4ccccc4)n3)cc2)c(Cl)c1 | > 84 µM |  | 36 µM | > 57.3 µM | 1.79 µM | > 100 µM | > 86.3 µM | 40.2 µM | 74.3 µM | > 84.2 µM | > 47.7 µM | > 85.8 µM | 0.321 µM | > 76.3 µM | 
O=C(CC(C(=O)c1ccsc1)c1cccs1)c1ccccc1 (stereo not drawn) | > 100 µM |  | > 100 µM | > 100 µM | > 100 µM | 67.3 µM | > 100 µM | > 100 µM | > 100 µM | 33.7 µM | > 100 µM | 76.3 µM | > 100 µM | > 100 µM | 
C/C(Cc1ccc2c(c1)OCO2)=N\N=c1\sc2ccccc2n1C | > 100 µM | > 100 µM | > 100 µM | > 100 µM | > 100 µM | > 100 µM | > 100 µM | > 100 µM |  | > 100 µM | > 100 µM | > 100 µM | > 100 µM | > 100 µM | 
Nc1cc(C2CCCc3c2[nH]c2ccccc32)ccc1O (stereo not drawn) | > 100 µM | > 100 µM | > 100 µM | 71.2 µM | > 100 µM | > 100 µM | > 100 µM | > 100 µM | > 100 µM | > 100 µM | > 100 µM | > 100 µM | > 100 µM |  | 
O=S1(=O)OCCOS(=O)(=O)C1(F)Cc1ccccc1 | > 100 µM |  | > 100 µM | > 100 µM | > 100 µM | > 100 µM | > 100 µM | > 100 µM | > 100 µM | > 100 µM | > 100 µM | > 100 µM | > 100 µM | > 100 µM | 
CC1[C@@]2(O[C@@H]3C=C4C5CCC6Cc7nc8c(nc7C[C@@]6(C)C5C[C@H](O)[C@@]4(C)[C@]13O)CC1CCc3c(cc4c5c3C(O)C[C@H]5[C@@H](C)C3(O4)OC(C)(C)CC3O)[C@]1(C)C8)O[C@@](C)(CO)C[C@@H]2O (stereo partly drawn) |  |  | 1.07 µM | > 3.72 µM | 2.35 µM |  | 0.182 µM | > 3.72 µM |  |  | 0.748 µM | > 3.72 µM | 0.59 µM |  | 
CCC1(O)C(=O)OCc2c1cc1n(c2=O)Cc2cc3cc4c(cc3nc2-1)OCO4 (stereo not drawn) |  | > 100 µM | 1.79 µM | 0.0688 µM | 0.0252 µM | 1.49 µM | 0.198 µM | 0.02 µM | 3.79 µM | > 100 µM | 0.0509 µM | 0.0512 µM | 0.0816 µM |  | < 0.01 µM
COc1ccc(C2=C(OC(C)=O)c3cccn3-c3ccc(Cl)cc3S2)cc1 |  |  | > 10 µM | > 10 µM |  | > 10 µM | > 10 µM | > 10 µM | 7.3 µM | > 10 µM | > 10 µM |  |  | 4.51 µM | 
Nc1cc(OCC2CCCCC2)nc(N)n1 | > 100 µM | > 100 µM | > 100 µM | > 100 µM | > 100 µM | > 100 µM | > 100 µM | > 100 µM |  |  | > 100 µM | > 100 µM |  | > 100 µM | 
COC(=O)c1csc(-c2csc(CCNC(=O)OC(C)(C)C)n2)n1 | > 100 µM | > 100 µM | > 100 µM |  | > 100 µM |  | > 100 µM | > 100 µM | > 100 µM |  | > 100 µM | > 100 µM | 99 µM | > 100 µM | 
O=C1OC(C(O)CO)C(C(O)CO)OC1=O (stereo not drawn) | > 10 µM | > 10 µM | > 10 µM |  | > 10 µM | > 10 µM | > 10 µM | > 10 µM | > 10 µM | > 10 µM | > 10 µM | > 10 µM | > 10 µM |  | 
O=c1cc(NNc2ccccc2)[nH]c(=O)[nH]1 | 26.1 µM |  | 31.8 µM | 42.7 µM | 36 µM | 29.5 µM | > 100 µM | > 100 µM | 84.6 µM |  | 28.5 µM |  | > 100 µM | 35.1 µM | 
C(=N\NC1=NCCCCN1)/c1ccc2ccccc2c1 | > 100 µM | > 100 µM | 31.5 µM | 29.8 µM | 66.1 µM | > 100 µM | 46.3 µM | 31.3 µM |  | 62 µM | 79.8 µM | > 100 µM |  |  | 
Cc1cc2ncn(CC(=O)O)c2cc1C | > 100 µM | > 100 µM | > 100 µM | > 100 µM | > 100 µM | > 100 µM | > 100 µM | > 100 µM | > 100 µM | > 100 µM | > 100 µM | > 100 µM | > 100 µM |  | 
O=C1C=C(NCCc2ccc(O)c([N+](=O)[O-])c2)C(=O)c2[nH]cnc21 | > 100 µM |  | > 100 µM | > 100 µM |  |  | 31.1 µM | 30.3 µM |  | 40.7 µM | 40.7 µM | > 100 µM | > 100 µM | 31.2 µM | 
O=[N+]([O-])c1ccc(C[P+]2(c3ccccc3)CCCCC2)cc1 (tested in a mixture with another compound) | > 100 µM |  | > 100 µM | > 100 µM |  | > 100 µM | > 100 µM | 84.2 µM |  |  | > 100 µM | > 100 µM | > 100 µM |  | 
